Eight molecules from PubChem BioAssay (NCI) can be followed below.

Test systems include COLO 205 colon; BT-549 breast; NCI-H460 lung; EKVX NSCLC; SN12C renal; KM12 colon; M14 melanoma; HT29 colon; T-47D breast; CCRF-CEM leukemia.
Assay in all cases: growth of human tumour cells (NCI), 48 h

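The compound was tested at five concentrations on cells cultured in 96-well plates, with a 48-hour exposure period. GI50: concentration for 50% inhibition of growth. The concentration for full growth arrest is given as TGI.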 A value given as a limit tells only on which side of the number the result lay.

Turning to `COc1cc(-c2nn(-c3ccc(NC(=O)Nc4cc(C(F)(F)F)cc(C(F)(F)F)c4)cc3)cc2-c2ccncc2)ccc1Cl`, the GI50 is 1.6 µM in the assay on COLO 205 colon; 2.61 µM with BT-549 breast; 1.75 µM with NCI-H460 lung; 1.43 µM in the assay with EKVX NSCLC; 1.71 µM in the assay on SN12C renal; 1.34 µM in the assay on KM12 colon. For the same molecule, the GI50 in the assay with M14 melanoma was 1.99 µM; in the assay on HT29 colon, 3.31 µM; with T-47D breast it was 1.96 µM; in the assay with CCRF-CEM leukemia, 2.13 µM. In addition, the TGI with COLO 205 colon came to 3.32 µM; with BT-549 breast, 6.03 µM; with NCI-H460 lung it was 3.88 µM; in the assay on EKVX NSCLC, 3.48 µM; with SN12C renal, 4.21 µM; in the assay on KM12 colon, 3.09 µM. Besides, the TGI with M14 melanoma was 4.23 µM; with HT29 colon it was 12.3 µM; in the assay on T-47D breast, 7.77 µM; in the assay with CCRF-CEM leukemia, greater than 100 µM.
On to `Cn1ncc(C#N)c1-c1ccc2c(c1)CN([C@H](CN)Cc1cccc(F)c1)C2=O`, for which the GI50 was 1.85 µM with COLO 205 colon; 0.477 µM in the assay with BT-549 breast; 0.752 µM in the assay on NCI-H460 lung; 5.63 µM in the assay on EKVX NSCLC; 19.7 µM with SN12C renal; 0.711 µM in the assay on KM12 colon. Moreover, the GI50 in the assay on M14 melanoma was 14.2 µM; in the assay on HT29 colon, 3.25 µM; with T-47D breast, 0.0519 µM; in the assay with CCRF-CEM leukemia, 0.932 µM. Besides, the TGI is 21 µM with COLO 205 colon; 12.1 µM in the assay on BT-549 breast; greater than 100 µM with NCI-H460 lung; greater than 92.1 µM in the assay with EKVX NSCLC; greater than 100 µM in the assay on SN12C renal; greater than 100 µM in the assay with KM12 colon. For the same molecule, the TGI in the assay with M14 melanoma is 57.1 µM; with HT29 colon, greater than 100 µM; with T-47D breast, 6.74 µM; with CCRF-CEM leukemia it was greater than 100 µM.
Take `Oc1ccc2c(=S)cc(-c3ccc(Br)cc3)oc2c1O`: the GI50 in the assay on COLO 205 colon was 10.7 µM; with BT-549 breast, 2.19 µM; with NCI-H460 lung it was 0.973 µM; in the assay with EKVX NSCLC, 17.9 µM; in the assay on SN12C renal, 2.61 µM; in the assay with KM12 colon it was 3.35 µM. In addition, the GI50 in the assay with M14 melanoma was 2.01 µM; in the assay on HT29 colon, 4.56 µM; in the assay with T-47D breast it was 1.27 µM; in the assay on CCRF-CEM leukemia, 2.53 µM. For the same molecule, the TGI with COLO 205 colon is 24.5 µM; in the assay with BT-549 breast, 14.6 µM; in the assay with NCI-H460 lung, 19 µM; with EKVX NSCLC, 56.6 µM; in the assay on SN12C renal, 12.3 µM; with KM12 colon, 25.6 µM. Further, the TGI amounted to 6.56 µM in the assay on M14 melanoma, 25.9 µM in the assay on HT29 colon, 5.15 µM in the assay with T-47D breast and 8.03 µM with CCRF-CEM leukemia.
Turning to `O=C(/C=C/c1ccccc1)c1cccc2ccccc12`, the GI50 with COLO 205 colon was 5.51 µM; with BT-549 breast, 2.31 µM; with NCI-H460 lung, 1.84 µM; with EKVX NSCLC it was 2.75 µM; in the assay with SN12C renal, 4.29 µM; with KM12 colon, 1.89 µM. The GI50 in the assay with M14 melanoma was 2.39 µM; in the assay on HT29 colon it was 3.69 µM; with T-47D breast it was 2.89 µM; in the assay on CCRF-CEM leukemia, 2.71 µM. Also, the TGI with COLO 205 colon is 18.2 µM; in the assay with BT-549 breast, 5.86 µM; in the assay with NCI-H460 lung, 3.86 µM; with EKVX NSCLC it was 12.6 µM; with SN12C renal it was 15.4 µM; in the assay on KM12 colon it was 3.77 µM. Further, the TGI in the assay on M14 melanoma was 5.19 µM; in the assay on HT29 colon, 12.9 µM; in the assay with T-47D breast it was 21.2 µM; in the assay with CCRF-CEM leukemia, 17.8 µM.
On to `Brc1ccccc2cc(-c3ccccc3)nc1-2`, for which the TGI in the assay on COLO 205 colon is 15.8 µM; with BT-549 breast, 56.5 µM; in the assay on NCI-H460 lung, 73.5 µM; with EKVX NSCLC, 40.4 µM; with SN12C renal it was 19.4 µM; with KM12 colon, 32.8 µM. Also, the TGI in the assay with M14 melanoma is 28.3 µM; in the assay with HT29 colon, greater than 90.3 µM; in the assay on T-47D breast, greater than 100 µM; in the assay on CCRF-CEM leukemia, greater than 48.5 µM. In the assay with T-47D breast, the GI50 is 15.7 µM.
Turning to `O=S1(=O)c2ccccc2N(c2ccccc2)c2nnnn21`, the TGI was 48.5 µM in the assay with COLO 205 colon; 70.5 µM with BT-549 breast; greater than 100 µM with NCI-H460 lung; greater than 100 µM in the assay with EKVX NSCLC; 39.1 µM in the assay on SN12C renal; greater than 100 µM in the assay with KM12 colon. Moreover, the TGI was 54.5 µM with M14 melanoma, 67.8 µM in the assay on HT29 colon, greater than 100 µM with T-47D breast and 31 µM in the assay with CCRF-CEM leukemia.
On to `CC12OC(CC(O)C1O)n1c3ccccc3c3c4c(c5c6ccccc6n2c5c31)C(=O)N(CCN1CCOCC1)C4=O` (stereo unspecified), for which the GI50 in the assay on COLO 205 colon is 0.606 µM; in the assay with BT-549 breast, 1.61 µM; in the assay on NCI-H460 lung it was 0.205 µM; in the assay with EKVX NSCLC, 1.48 µM; in the assay on SN12C renal it was 1.02 µM; with KM12 colon, 1.25 µM. The GI50 with M14 melanoma is 0.912 µM; in the assay with HT29 colon, 0.968 µM; in the assay on T-47D breast it was 0.651 µM; with CCRF-CEM leukemia it was 1.16 µM. For the same molecule, the TGI turned out to be 4.51 µM with COLO 205 colon; 8.21 µM with BT-549 breast; 1.7 µM in the assay on NCI-H460 lung; 8.94 µM in the assay on EKVX NSCLC; 6.12 µM in the assay with SN12C renal; 6.5 µM in the assay with KM12 colon. Moreover, the TGI in the assay with M14 melanoma was determined as 4.54 µM; in the assay on HT29 colon, 6.83 µM; with T-47D breast, 3.84 µM; in the assay with CCRF-CEM leukemia it was 8.95 µM.
With `CCN(CC)CCNC(=O)c1cccc2c1-c1ccccc1C2=O`, the GI50 in the assay on COLO 205 colon, in the assay with BT-549 breast, in the assay on NCI-H460 lung, with EKVX NSCLC, with SN12C renal and in the assay on KM12 colon was greater than 100 µM in each case. Moreover, the GI50 in the assay with M14 melanoma, with HT29 colon, with T-47D breast and in the assay on CCRF-CEM leukemia was greater than 100 µM in each case. The TGI in the assay with COLO 205 colon, with BT-549 breast, in the assay with NCI-H460 lung, with EKVX NSCLC, in the assay with SN12C renal and in the assay on KM12 colon was greater than 100 µM each time. In addition, the TGI in the assay with M14 melanoma, in the assay with HT29 colon, in the assay on T-47D breast and with CCRF-CEM leukemia was greater than 100 µM in each case.
